This is an account of results in patent US20190218508A1, “METHODS OF CELL SEPARATION” (CELLS4LIFE GROUP LLP, priority 2013, published 2019).

For this assay, the system named is erythrocytes. In words: Visual separation (sedimentation) of erythrocyte and nucleated cell fractions of blood samples. The conditions noted are these: for separation of whole blood / order from best to worst of each substance at the separation: Example 4; for separation of whole blood: whole blood 1:1 with PBS composition of 2.5% Dextran 70 plus substance at 1-5%, 30 minutes room temperature; for order from best to worst of each substance at the separation: with 2.5% Dextran 70. The format is cell-based. The procedure:
Umbilical cord blood was collected into standard Baxter 250 ml (nominal) blood bags containing 35 ml of a citrate phosphate dextrose adenine (CPDA) anticoagulant solution.
A solution containing dextran and a further constituent selected from dimethyl sulphoxide (DMSO), dimethyl glycine (DMG), L-valine, L-proline, β-alanine, leucine, isoleucine and glycine, in phosphate-buffered saline (PBS), was prepared. This solution was added to a blood sample at a ratio of 1:1, this was then mixed thoroughly. Separation of the erythrocyte and nucleated cell fractions took place at room temperature within a time period of 15 or 30 minutes. […]
Whole blood samples were mixed with 1:1 with PBS compositions comprising 2.5% Dextran 70 plus DMSO, L-valine, L-proline, β-alanine, leucine, isoleucine, glycine and DMG. Each of the amino acids and the DMSO were tested at concentration levels of 1%, 1.5%, 2%, 2.5%, 3%, 3.5%, 4%, 4.5% and 5% in the PBS composition. After mixing, each sample was left for 30 minutes at room temperature. […]

[1] abbreviates: dextran 70 Mw final 2.5% + substance final 2.5% w/v, after 30 minutes, data not shown.

For `CC(C)[C@H](N)C(=O)O` [L-valine], the “separation of whole blood” value was “performed better than DMG” and the “order from best to worst of each substance at the separation” value (“order from best to worst” for short) is recorded as “DMSO>L-valine>DMG>L-proline>β-alanine>Leucine/isoleucine/glycine”. In addition, the “separation of erythrocytes and nucleated cells” value under setting [1] is reported as “clear separation”.
For the compound `NCCC(=O)O` [β-alanine], the “separation of whole blood” value is listed as “did very little” and the “order from best to worst” value is reported as “DMSO>L-valine>DMG>L-proline>β-alanine>Leucine/isoleucine/glycine”. Also, the “separation of erythrocytes and nucleated cells” value under setting [1] is recorded as “little if any separation”.
On the same counts, the results for `NCC(=O)O` [glycine] are “almost total inactivity”, “DMSO>L-valine>DMG>L-proline>β-alanine>Leucine/isoleucine/glycine” and “little if any separation”.
On the same counts, the results for `CC(C)C[C@H](N)C(=O)O` [leucine] are “almost total inactivity”, “DMSO>L-valine>DMG>L-proline>β-alanine>Leucine/isoleucine/glycine” and “little if any separation”.
In the case of `CN(C)CC(=O)O` [DMG, dimethyl glycine], the “order from best to worst” value was “DMSO>L-valine>DMG>L-proline>β-alanine>Leucine/isoleucine/glycine”. Moreover, under setting [1], the “separation of erythrocytes and nucleated cells” value was “clear separation”.
For the compound `CC[C@H](C)[C@H](N)C(=O)O` [isoleucine], the “separation of whole blood” value was “almost total inactivity” and the “order from best to worst” value is reported as “DMSO>L-valine>DMG>L-proline>β-alanine>Leucine/isoleucine/glycine”. Also, the “separation of erythrocytes and nucleated cells” value under setting [1] is “little if any separation”.
With `C[S+](C)[O-]` [DMSO, dimethyl sulphoxide], the “order from best to worst” value is listed as “DMSO>L-valine>DMG>L-proline>β-alanine>Leucine/isoleucine/glycine”. The “separation of erythrocytes and nucleated cells” value (dextran 500 Mw final 2.5% w/v + DMSO final 1% to 5% v/v, after 15 minutes and 30 minutes) is reported as “clear separation”. Besides, the “separation of the erythrocytes from the nucleated cells” value (umbilical cord blood 1:1, dextran 500 Mw final 2.5% w/v + DMSO final 2% or 2.5% v/v, 30 minutes) is “clear separation”.
For `O=C(O)[C@@H]1CCCN1` [L-proline], the “separation of whole blood” value is reported as “did very little” and the “order from best to worst” value is “DMSO>L-valine>DMG>L-proline>β-alanine>Leucine/isoleucine/glycine”. Further, the “separation of erythrocytes and nucleated cells” value under setting [1] is “little if any separation”.
